In patent publication US8513276B2, “Imidazo[1,2-a]pyridine compounds for use in treating cancer” (Astex Therapeutics Limited, priority 2006, dated 2013):
Where a name gives a salt, the structure may show the parent alone. Read-outs that look alike come from different tables or passages of the source.

What was measured:
LP-1 cell line = test: Cell-based pERK ELISA in LP-1 multiple myeloma cells; conditions: Homo sapiens
Procedure: LP-1 or JIM-1 multiple myeloma cells were seeded in 96 well plates at 1×10^6 cells/ml in 200 μl per well in serum free media. HUVEC cells were seeded at 2.5×10^5 cells/ml and allowed to recover for 24 h prior to transfer to serum free media. Cells were incubated for 16 h at 37° C. prior to the addition of a test compound for 30 minutes. Test compounds were administered at a 0.1% final DMSO concentration. Following this 30 minute incubation a FGF-1/Heparin (FGF-1 at 100 ng/ml final and Heparin at 100 ug/ml) mixture or VEGF^165 ([…]) was added to each of the wells for a further 5 minutes. The media was removed and 50 ul ERK ELISA lysis buffer (R and D Systems DuoSet ELISA for pERK and Total ERK #DYC-1940E, DYC-1018E) added. ELISA plates and standards were prepared according to the standard DuoSet protocols and the relative amounts of pERK to total ERK in each sample calculated according to the standard curve.
In particular, compounds of the invention were tested against the LP-1 cell line (DSMZ no.: ACC 41) derived from human multiple myeloma.

FGFR3 = biological target: T1, FGFR3 (Homo sapiens, UniProt P22607); test: FGFR3 in vitro kinase inhibitory activity assay (TRF); format: biochemical
T1 construct: Enzymes (from Upstate) were prepared at 2× final concentration in 1× kinase assay buffer; purchased Upstate
Procedure: Enzymes (from Upstate) were prepared at 2× final concentration in 1× kinase assay buffer (as described below). Enzymes were then incubated with test compounds, biotinylated Flt3 substrate (biotin—DNEYFYV) (Cell Signalling Technology Inc.) and ATP. The reaction was allowed to proceed for 3 hours (FGFR3) or 2.5 hrs (PDGFR-beta) at room temperature on a plate shaker at 900 rpm before being stopped with 20 μl of 35 mM EDTA, pH 8 (FGFR3) or 55 mM EDTA, pH 8 (PDGFR-beta). Twenty μl of 5× detection mix (50 mM HEPES pH 7.5, 0.1% BSA, 2 nM Eu-anti-pY (PY20) (PerkinElmer) 15 nM SA-XL665 (Cisbio) for FGFR3 and 50 mM HEPES, pH 7.5, 0.5 M KF, 0.1% BSA, 11.34 nM Eu-anti-pY (PT66) (PerkinEimer), 94 nM SA-XL665 (Cisbio) for PDGFR-beta) was then added to each well and the plate sealed and incubated at room temperature for one hour on a plate shaker at 900 rpm. The plate was then read on a Packard Fusion plate reader in TRF mode.
Kinase Assay buffers were:
A: 50 mM HEPES pH 7.5, 6 mM MnCl2, 1 mM DTT, 0.1% TritonX-100

[1] = LP-1 cell line, given as a bound, read-out: IC50 in LP-1 pERK ELISA
[2] = given as a bound, read-out: IC50 in the FGFR3 assay
[3] = LP-1 cells, FGF-1/heparin stimulation, pERK relative to total ERK, read-out: LP-1 pERK ELISA
[4] = in vitro kinase assay, 8 μM ATP, read-out: FGFR3 IC50

T1 sequence (P22607 23-806): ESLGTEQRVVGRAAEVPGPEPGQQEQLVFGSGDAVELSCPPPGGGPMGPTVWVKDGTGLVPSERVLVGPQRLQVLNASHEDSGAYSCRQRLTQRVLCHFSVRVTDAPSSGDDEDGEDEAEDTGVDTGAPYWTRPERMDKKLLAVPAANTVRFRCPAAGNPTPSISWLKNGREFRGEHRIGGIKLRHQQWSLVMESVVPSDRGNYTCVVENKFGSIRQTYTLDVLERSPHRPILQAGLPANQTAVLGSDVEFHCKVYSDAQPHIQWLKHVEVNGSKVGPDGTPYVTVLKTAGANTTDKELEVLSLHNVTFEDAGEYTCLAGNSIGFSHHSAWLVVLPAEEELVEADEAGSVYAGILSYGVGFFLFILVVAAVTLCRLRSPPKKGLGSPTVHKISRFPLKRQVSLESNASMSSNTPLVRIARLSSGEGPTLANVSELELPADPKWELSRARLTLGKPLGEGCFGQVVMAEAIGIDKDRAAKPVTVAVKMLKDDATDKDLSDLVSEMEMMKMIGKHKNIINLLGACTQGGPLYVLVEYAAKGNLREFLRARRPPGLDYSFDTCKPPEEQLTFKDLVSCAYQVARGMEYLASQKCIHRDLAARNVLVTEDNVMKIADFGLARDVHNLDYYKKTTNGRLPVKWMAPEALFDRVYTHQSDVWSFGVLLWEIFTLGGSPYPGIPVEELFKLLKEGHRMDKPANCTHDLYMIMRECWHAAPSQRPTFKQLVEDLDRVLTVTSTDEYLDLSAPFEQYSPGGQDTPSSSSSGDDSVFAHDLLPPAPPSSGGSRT

SMILES | IC50 (LP-1 cell line; [1]) | IC50 (FGFR3; [2]) | IC50 (LP-1 cell line; [3]) | IC50 (FGFR3; [4])
c1cc(Nc2nncs2)cc(-c2cnc3cc(-c4ccc5c(c4)OCO5)ccn23)c1 [Example 20, [3-(7-Benzo[1,3]dioxol-5-yl-imidazo[1,2-a]pyridin-3-yl)-phenyl]-[1,3,4]thiadiazol-2-yl-amine Formate] | < 1000 nM | < 1000 nM |  | 
c1cc(Nc2nncs2)cc(-c2cnc3cc(N4CCCCC4)ccn23)c1 [Example 24, [3-(7-Piperidin-1-yl-imidazo[1,2-a]pyridin-3-yl)-phenyl]-[1,3,4]thiadiazol-2-yl-amine] | < 1000 nM | < 1000 nM |  | 
CNC(=O)Cc1cccc(-c2ccn3c(-c4cccc(Nc5nncs5)c4)cnc3c2)c1 [Example 26, N-Methyl-2-(3-{3-[3-([1,3,4]thiadiazol-2-ylamino)-phenyl]-imidazo[1,2-a]pyridin-7-yl}-phenyl)-acetamide Hydrochloride] | < 1000 nM | < 1000 nM |  | 
CN1CCN(Cc2cccc(-c3ccn4c(-c5cccc(Nc6nncs6)c5)cnc4c3)c2)CC1 [Example 9, (3-{7-[3-(4-Methyl-piperazin-1-ylmethyl)-phenyl]-imidzao[1,2-a]pyridin-3-yl}-phenyl)-[1,3,4]thiadiazol-2-yl-amine formate salt] | < 1000 nM | < 1000 nM |  | 
Clc1ccn2c(-c3cccc(Nc4nncs4)c3)cnc2c1 [the starting material of Procedure A4c, [3-(7-Chloro-imidazo[1,2-a]pyridin-3-yl)-phenyl]-[1,3,4]thiadiazol-2-yl-amine] | < 1000 nM | < 1000 nM |  | 
Fc1ccc(-c2cnc3c(-c4cccc(Nc5nncs5)c4)cnn3c2)cc1 [Example 10, {3-[6-(4-Fluoro-phenyl)-pyrazolo[1,5-a]pyrimidin-3-yl]-phenyl}-[1,3,4]thiadiazol-2-yl-amine] | < 1000 nM | < 1000 nM | 39 nM | 4.82 nM

The next lines start with the values.

IC50 (LP-1 cell line; [1]) | IC50 (FGFR3; [2]) | IC50 (LP-1 cell line; [3]) | IC50 (FGFR3; [4]) | SMILES
< 1000 nM | < 1000 nM |  |  | Cc1nnc(Nc2cccc(-c3cnc4cc(-c5cccc(CN6CCOCC6)c5)ccn34)c2)s1 [Example 3]
< 1000 nM | < 1000 nM |  |  | CN1CCN(Cc2ccc(-c3ccn4c(-c5cccc(Nc6cnn[nH]6)c5)cnc4c3)cc2)CC1 [Example 4, (3-{7-[4-(4-Methyl-piperazin-1-ylmethyl)-phenyl]-imidazo[1,2-a]pyridin-3-yl}-phenyl)-(3H-[1,2,3]triazol-4-yl)-amine formate salt]
< 1000 nM | < 1000 nM | 69 nM | 2.2 nM | Fc1ccc(-c2ccn3c(-c4cccc(Nc5nncs5)c4)cnc3c2)cc1 [Example 7, {3-[7-(4-Fluoro-phenyl)-imidazo[1,2-a]pyridin-3-yl]-phenyl}-[1,3,4]thiadiazol-2-yl-amine]
< 1000 nM | < 1000 nM |  |  | Fc1ccc(-c2cnc3c(-c4cncc(Nc5nncs5)c4)cnn3c2)cc1 [Example 25, {5-[6-(4-Fluoro-phenyl)-pyrazolo[1,5-a]pyrimidin-3-yl]-pyridin-3-yl}-[1,3,4]thiadiazol-2-yl-amine]
< 1000 nM | < 1000 nM | 140 nM | 33.9 nM | Cn1nnc(-c2ccn3c(-c4cccc(Nc5nncs5)c4)cnc3c2)n1 [Example 43, {3-[7-(2-Methyl-2H-tetrazol-5-yl)-imidazo[1,2-a]pyridin-3-yl]phenyl}-[1,3,4]thiadiazol-2-yl-amine]
< 1000 nM | < 1000 nM |  |  | Fc1ccc(-c2ccc3c(-c4cccc(Nc5nncs5)c4)cnn3c2)cc1 [Example 12, {3-[6-(4-Fluoro-phenyl)-pyrazolo[1,5-a]pyridin-3-yl]-phenyl}-[1,3,4]thiadiazol-2-yl-amine]
< 1000 nM | < 1000 nM |  |  | CNC(=O)c1cccc(-c2ccn3c(-c4cccc(Nc5nncs5)c4)cnc3c2)c1 [Example 30, N-Methyl-3-{3-[3-([1,3,4]thiadiazol-2-ylamino)-phenyl]-imidazo[1,2-a]pyridin-7-yl}-benzamide Hydrochloride]
< 1000 nM | < 1000 nM |  |  | c1cc(CN2CCOCC2)cc(-c2ccn3c(-c4cccc(Nc5nncs5)c4)cnc3c2)c1 [Example 2]
